Experimental data as given in patent publication US12016843B2, “Compositions and methods for the treatment of amyotrophic lateral sclerosis, parkinson's disease, parkinson's disease with dementia, dementia with lewy bodies, and multiple system atrophy” (priority 2019, dated 2024).

Tests used:
[1] = tested on: SOD1 G93A high copy transgenic mice; assay: Plasma neurofilament light chain (NfL) levels in SOD1 G93A mouse model of ALS; format: in vivo; conditions: for plasma NfL levels Mean Diff. (Dunnett's multiple comparisons test, Vehicle vs. 0.5 mg/kg): 0.5 mg/kg daily ip; for plasma NfL levels Mean Diff. (Dunnett's multiple comparisons test, Vehicle vs. 0.5 mg/kg) / plasma NfL levels Mean Diff. (Dunnett's multiple comparisons test, Vehicle vs. 5.0 mg/kg): 10 weeks; for plasma NfL levels Mean Diff. (Dunnett's multiple comparisons test, Vehicle vs. 5.0 mg/kg): 5.0 mg/kg daily ip
Experimental: (§1) Study Design. Three experimental groups of n=20 (10 male, 10 female) SOD1 G93A high copy transgenic mice were dosed daily via intraperitoneal administration of vehicle control; (R)-2-amino-N—((S)-1-(((S)-5-amino-1-(3-benzyl-1,2,4-oxadiazol-5-yl)pentyl)amino)-3-(4-hydroxy-2,6-dimethylphenyl)-1-oxopropan-2-yl)-5-guanidinopentanamide (as its tris-HCl salt-(Ia)) at 0.5 mg/kg; or (R)-2-amino-N—((S)-1-(((S)-5-amino-1-(3-benzyl-1,2,4-oxadiazol-5-yl)pentyl)amino)-3-(4-hydroxy-2,6-dimethylphenyl)-1-oxopropan-2-yl)-5-guanidinopentanamide (as its tris-HCl salt—(Ia)) at 5.0 mg/kg. Animals were dosed beginning at 8 weeks of age and dosing was continued until humane end of life (defined by the inability of animal to right itself from either side within 30 seconds when placed on its side). Experimental endpoints and in-life collections and observations were as follows: • 1. Bodyweight measurement. Daily recording of weight. • 2. Neurological scoring. Weekly NeuroScore, a qualitative assessment of neurological disease progression based upon a five-point grading system. Scoring is defined as follows: • Score 0: Full extension of hind legs away from the lateral midline when the mouse is suspended by its tail, and the mouse can hold this extension for 2 seconds, being suspended 3 times consecutively. • Score 1: Collapse or partial collapse of the leg extension toward the lateral midline or trembling of hind legs during the tail suspension. • Score 2: Toes curl under at least twice during walking of 12 inches, or any part of the foot is dragging along the cage bottom or table. • Score 3: Rigid paralysis or minimal joint movement, the foot is not being used for forward motion. • Score 4: The mouse cannot right itself within 30 sec from either side. • 3. Grip strength test. Weekly forelimb grip strength, performed as follows: • a. Subjects are weighed and acclimated to the testing room for at least 60 min. • b. Equipment: Bioseb grip strength meter equipped with a grid for grasping that is suited for mice. • c. Mice are lowered towards the grid by their tails to allow for visual placing and for the mouse to grip the grid with their forepaws. • d. Subjects are firmly pulled horizontally away from the grid (parallel to the bench) for 3 consecutive trials with a brief (approximately 30 sec) rest period on the bench between trials. • e. The average force in grams of the 3 forepaw and 3 all-paws trials are analyzed with and without normalization to body weight. • 4. Retro-orbital blood collection. Bi-weekly retroorbital eye bleeds to determine drug exposure levels as well as levels of neurofilament light chain, a biomarker of axonal damage shown to correlate with ALS disease progression in human patients. Briefly, mice are sedated with isoflurane (5% induction, 2% maintenance) in O2. When they reach the plane of anesthesia, mice are withdrawn from isoflurane and blood is collected with a 25 μL glass capillary tube from the retro-orbital sinus, alternating sides for successive bleeds. 200 μL of whole blood is collected in a BD K2EDTA Microtainer collection tube containing 3.5 μL of 25X HALT protease inhibitor cocktail and kept on ice for processing. Mice are allowed to recover from the anesthesia, then returned to their home cage. Results […]

[2] = tested on: SOD1 G93A high copy transgenic mice; assay: Forelimb grip strength test in SOD1 G93A mouse model of ALS; format: in vivo; conditions: 10 weeks on drug; for grip strength Mean Diff. (Dunnett's multiple comparisons test, Vehicle vs. 0.5 mg/kg): 0.5 mg/kg daily ip; for grip strength Mean Diff. (Dunnett's multiple comparisons test, Vehicle vs. 5.0 mg/kg): 5.0 mg/kg daily ip
Experimental: as §1, with “O2.” for “O2. When they reach the plane of anesthesia, mice are withdrawn from isoflurane and blood is collected with a 25 μL glass capillary tube from the retro-orbital sinus, alternating sides for successive bleeds. 200 μL of whole blood is collected in a BD K2EDTA Microtainer collection tube containing 3.5 μL of 25X HALT protease inhibitor cocktail and kept on ice for processing. Mice are allowed to recover from the anesthesia, then returned to their home cage. Results”
Systemic administration of (R)-2-amino-N—((S)-1-(((S)-5-amino-1-(3-benzyl-1,2,4-oxadiazol-5-yl)pentypamino)-3-(4-hydroxy-2,6-dimethylphenyl)-1-oxopropan-2-yl)-5-guanidinopentanamide attenuates decline in muscle strength in ALS mouse model. As shown in FIG. 2A and Table 1A, systemic administration of (R)-2-amino-N—((S)-1-(((S)-5-amino-1-(3-benzyl-1,2,4-oxadiazol-5-yl)pentyl)amino)-3-(4-hydroxy-2,6-dimethylphenyl)-1-oxopropan-2-yl)-5-guanidinopentanamide (as its tris-HCl salt—(Ia)) attenuates the loss of grip strength in male SOD1 G93A transgenic mice. Grip strength values were determined at baseline (week 8) and through end of life for each animal. […]

Structure (SMILES): Cc1cc(O)cc(C)c1C[C@H](NC(=O)[C@H](N)CCCNC(=N)N)C(=O)N[C@@H](CCCCN)c1nc(Cc2ccccc2)no1.Cl.Cl.Cl [Compound Ia, (R)-2-amino-N—((S)-1-(((S)-5-amino-1-(3-benzyl-1,2,4-oxadiazol-5-yl)pentyl)amino)-3-(4-hydroxy-2,6-dimethylphenyl)-1-oxopropan-2-yl)-5-guanidinopentanamide·3HCl]
- plasma NfL levels Mean Diff. (Dunnett's multiple comparisons test, Vehicle vs. 0.5 mg/kg) ([1]; female SOD1 G93A mice): −1075
- plasma NfL levels Mean Diff. (Dunnett's multiple comparisons test, Vehicle vs. 5.0 mg/kg) ([1]; female SOD1 G93A mice): 1291
- plasma NfL levels Mean Diff. (Dunnett's multiple comparisons test, Vehicle vs. 0.5 mg/kg) ([1]; male SOD1 G93A mice): 897.8
- plasma NfL levels Mean Diff. (Dunnett's multiple comparisons test, Vehicle vs. 5.0 mg/kg) ([1]; male SOD1 G93A mice): 3469
- accumulation of NfL in plasma ([1]; male SOD1 G93A mice, 5.0 mg/kg, 10 weeks of administration): statistically significant impact on the accumulation of NfL
- grip strength Mean Diff. (Dunnett's multiple comparisons test, Vehicle vs. 0.5 mg/kg) ([2]; female SOD1 G93A mice): −6.081
- grip strength Mean Diff. (Dunnett's multiple comparisons test, Vehicle vs. 5.0 mg/kg) ([2]; female SOD1 G93A mice): −7.905
- grip strength Mean Diff. (Dunnett's multiple comparisons test, Vehicle vs. 0.5 mg/kg) ([2]; male SOD1 G93A mice): −0.7940
- grip strength Mean Diff. (Dunnett's multiple comparisons test, Vehicle vs. 5.0 mg/kg) ([2]; male SOD1 G93A mice): −11.90
- loss of grip strength ([2]; male SOD1 G93A mice, 5.0 mg/kg, p=0.08): trend in protection from loss of grip strength
